# Laboratory results reported in patent US20240082238A1, “COMPOSITIONS AND METHODS FOR TREATING CANCER” (UNIVERSITY OF IOWA RESEARCH FOUNDATION, priority 2021, published 2024).
# How the values were obtained:
# [1] = Cytotoxicity assay (MTS) and bright-field microscopy, LLC-PK1-MDR1 cells; format: cell-based, porcine; conditions: pig, LLC-PK1-MDR1 cells (overexpressing P-gp), PTX alone, maximum concentration used 50 nM
# Description: Cytotoxicity assay. Hec50co cells were seeded at 1500 cells per well in 96-well plates for 24 h in a complete medium. Later, the medium was removed and PTX, CIP2b, or CIP (all dissolved in DMSO and diluted in complete medium) were added to cells as either monotherapies or in combinations, and the plates were incubated for 72 hours. Then, the complete medium was removed and MTS reagent in the complete medium was added to wells, and the plates were incubated for 1-4 hours according to the manufacturer's protocol. Finally, the absorbance was recorded at 490 nm using a Spectra Max plus 384 Microplate Spectrophotometer (Molecular Devices, Sunnyvale, CA). Percentage cell viability was expressed as the average absorbance of the test group relative to that of the control group (untreated cells). […] Synergism was detected following the Chou-Talalay method (CI<1 indicates synergism) (Chou T C. Cancer research. 2010; 70(2):440-6, doi: 10.1158/0008-5472.CAN-09-1947) using CompuSyn software (Ver. 1.0). P-gp efflux transporter. Overexpression of the MDR1 gene, reflected in the abundance of the P-gp efflux pump, is one of the major reasons for PTX chemoresistance in cancer. In this study, LLC-PK1-WT and LLC-PK1-MDR1 cell lines were used. MTS assay and the PTX intracellular accumulation experiment were performed as previously described above.
# human Topo I = biological target: T1, human Topo I (Homo sapiens, UniProt P11387); assay: Topoisomerase I inhibition assay (plasmid-based); format: biochemical; conditions: drug final concentration 100 μM
# T1 construct: purchased TopoGEN Inc. TG1015-1A
# T1 sequence (P11387 1-765): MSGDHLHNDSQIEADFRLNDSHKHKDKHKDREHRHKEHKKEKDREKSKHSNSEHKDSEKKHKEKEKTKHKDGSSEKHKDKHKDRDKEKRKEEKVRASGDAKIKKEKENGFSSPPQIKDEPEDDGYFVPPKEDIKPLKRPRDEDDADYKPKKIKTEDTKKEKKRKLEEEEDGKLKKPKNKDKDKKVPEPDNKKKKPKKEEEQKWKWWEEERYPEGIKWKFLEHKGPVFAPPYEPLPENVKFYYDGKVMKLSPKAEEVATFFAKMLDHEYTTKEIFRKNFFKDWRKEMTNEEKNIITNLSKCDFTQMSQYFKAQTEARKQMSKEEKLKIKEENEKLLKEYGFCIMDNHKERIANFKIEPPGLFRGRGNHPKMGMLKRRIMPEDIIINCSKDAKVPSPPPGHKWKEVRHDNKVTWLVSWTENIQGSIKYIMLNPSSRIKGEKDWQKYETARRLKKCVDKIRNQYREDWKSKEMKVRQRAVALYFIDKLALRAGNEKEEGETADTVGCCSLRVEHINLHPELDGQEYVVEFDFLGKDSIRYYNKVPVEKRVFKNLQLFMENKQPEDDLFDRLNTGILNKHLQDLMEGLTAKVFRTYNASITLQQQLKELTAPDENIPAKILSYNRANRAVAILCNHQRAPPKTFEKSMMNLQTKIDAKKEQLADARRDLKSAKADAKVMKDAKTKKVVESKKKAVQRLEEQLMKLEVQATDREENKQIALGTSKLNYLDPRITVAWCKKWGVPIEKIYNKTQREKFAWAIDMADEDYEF
# Description: Topoisomerase I inhibition assay. A plasmid-based Topo I assay (Cat. No. TG1015-1A, TopoGEN Inc., Buena Vista, CO) was performed according to the manufacturer's instructions. Briefly, 1 μL of the test compounds (PTX, CIP, CIP2b, or CAM) at a concentration of 2 mM, was mixed with 2 μL of the reaction buffer (10× tris-glycine-SDS), and deionized water was added to make 18 μL solution. This was followed by adding 1 μL of supercoiled DNA (SC DNA) and 1 μL of human Topo I (10 U/μL) (drug final concentration was 100 μM). Also, SC DNA±Topo I was used as a control (i.e., not containing drugs). In addition, relaxed DNA was added as another control in this assay. Samples were incubated on a heating block (Isotemp 125 D Digital Heat Block, ThermoFisher Scientific) set at 37° C. for 30 minutes. Then, the reaction was stopped by adding a 5× stop buffer. Samples were then loaded directly into the wells of a 1% agarose gel (Research Products International, Mount Prospect, IL). The gel was run at 150 V until the dye front had traveled approximately 5 cm (run time was approximately 2 hours). The gel was then stained with 1 μg/mL ethidium bromide in deionized water for 15 minutes, and this was followed by de-staining (washing) with deionized water for 30 min before imaging. The image was then taken using an Invitrogen iBright CL 1500 Imaging System (ThermoFisher Scientific). The intensity of the final bands in the gel was quantified using ImageJ, and the results are expressed as the percentage of Topo I inhibition.
# caspase 3 = assay: Caspase multiplex activity assay, caspase 3; format: cell-based, human; conditions: 72 h; PTX 5, 10 nM; CIP2b 10, 25, 50 μM
# Description: Apoptosis and caspase activity. The expression of caspase 3, 8, and 9 was measured using Multiplex Activity Assay Fluorometric Kit (Cat. No. ab219915, Abcam). Briefly, Hec50co cells were plated in 96-well plates at a density of 3000 per well in 100 μL of the complete medium and incubated for 24 hours. After incubation, the medium was removed, and different concentrations either in single or combination of treatments were added (PTX 5 and 10 nM; CIP2b 10, 25, and 50 μM). Cells with treatments were incubated for 24 or 72 hours. Then, the caspase kit reagents were added to the cells and incubated at room temperature for 60 minutes. Fluorescence intensity (at excitation/emission values of 535/620 nm, 490/525 nm, and 370/450 nm for caspase 3, 8, and 9, respectively) was then measured using a SpectraMax M5 microplate reader (Molecular Devices).
smiles,measurement,setting,value
"CC(=O)O[C@H]1C(=O)[C@@]2(C)[C@H]([C@H](OC(=O)c3ccccc3)[C@]3(O)C[C@H](OC(=O)[C@H](O)[C@@H](NC(=O)c4ccccc4)c4ccccc4)C(C)=C1C3(C)C)[C@]1(OC(C)=O)CO[C@@H]1C[C@@H]2O [PTX, paclitaxel]",IC50 at 72 h,[1],> 50 nM
same,Topo I inhibitory activity (gel),human Topo I,neither PTX nor CIP did inhibit Topo I
same,levels of caspase 3,caspase 3,high levels of caspase 3
